Experimental findings from patent US8530493B2, “Indolopyridines as Eg5 kinesin modulators” (4SC AG, priority 2006, dated 2013) are described below.

In this experiment the test system is RKO p21 uninduced (proliferating) colon adenocarcinoma cells. The experiment is described as follows: Alamar Blue cell viability assay, RKO p21 uninduced (proliferating). Format: cell-based. Particulars: Homo sapiens, Table B3, anti-proliferative/cytotoxic activity, 72 hours, read-out: −log EC50 RKO p21 uninduced (proliferating) (converted). In short, it runs like this: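 Viability read by Alamar Blue fluorescence (ex 544, em 590 nm), normalised to untreated wells, after 72 h, 37° C, 5% CO2 compound exposure in triplicate. Cells were uninduced (no Ponasterone A), proliferating RKO colon carcinoma p27 or p21 subclones in DMEM with 10% FCS; values are −log EC50 (mol/l).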

Some results are limits rather than exact numbers.

For the compound `CC(C)NCCCN1C(=O)N2[C@H](c3cccc(O)c3)c3[nH]c4ccc(Cl)cc4c3C[C@@]2(C)C1=O` (racemic) [Example 392, (3aSR,10RS)-6-Chloro-10-(3-hydroxy-phenyl)-2-(3-isopropylamino-propyl)-3a-methyl-3a,4,9,10-tetrahydro-2,9,10a-triaza-cyclopenta[b]fluorene-1,3-dione], the EC50 was at most 39.8 nM.
With `CC1CCN(CCCN2C(=O)N3[C@H](c4cccc(O)c4)c4[nH]c5cc(F)c(Cl)cc5c4C[C@@]3(C)C2=O)CC1` (racemic) [Example 479, (3aSR,10RS)-6-Chloro-7-fluoro-10-(3-hydroxy-phenyl)-3a-methyl-2-[3-(4-methyl-piperidin-1-yl)-propyl]-3a,4,9,10-tetrahydro-2,9,10a-triaza-cyclopenta[b]fluorene-1,3-dione], the EC50 is 39.8 to 251 nM.
In the case of `C=CCNCCCN1C(=O)N2[C@H](c3cccc(O)c3)c3[nH]c4cc(F)c(Cl)cc4c3C[C@@]2(C)C1=O` (racemic) [Example 465, (3aSR,10RS)-2-(3-Allylamino-propyl)-6-chloro-7-fluoro-10-(3-hydroxy-phenyl)-3a-methyl-3a,4,9,10-tetrahydro-2,9,10a-triaza-cyclopenta[b]fluorene-1,3-dione], the EC50 is 39.8 to 251 nM.
On to `CNCCCN1C(=O)N2[C@H](c3cccc(O)c3)c3[nH]c4ccc(OC(F)F)cc4c3C[C@@]2(C)C1=O` (racemic) [Example 203, (3aSR,10RS)-6-(1,1-Difluoro-methoxy)-10-(3-hydroxy-phenyl)-3a-methyl-2-(3-methylamino-propyl)-3a,4,9,10-tetrahydro-2,9,10a-triaza-cyclopenta[b]fluorene-1,3-dione], for which the half-maximal effective concentration (EC50) was 39.8 to 251 nM.
Take `COc1cc2c3c([nH]c2cc1F)[C@@H](c1cccc(O)c1)N1C(=O)N(CCCNCCO)C(=O)[C@]1(C)C3` (racemic) [Example 305, (3aSR,10RS)-7-Fluoro-2-[3-(2-hydroxy-ethylamino)-propyl]-10-(3-hydroyx-phenyl)-6-methoxy-3a-methyl-3a,4,9,10-tetrahydro-2,9,10a-triaza-cyclopenta[b]fluorene-1,3-dione]: the concentration giving a half-maximal response (EC50) was 39.8 to 251 nM.
For `CCN(C)CCCN1C(=O)N2[C@H](c3cccc(O)c3)c3[nH]c4cc(F)c(Cl)cc4c3C[C@@]2(C)C1=O` (racemic) [Example 467, (3aSR,10RS)-6-Chloro-2-[3-(ethyl-methyl-amino)-propyl]-7-fluoro-10-(3-hydroxy-phenyl)-3a-methyl-3a,4,9,10-tetrahydro-2,9,10a-triaza-cyclopenta[b]fluorene-1,3-dione], the concentration giving a half-maximal response (EC50) was at most 39.8 nM.
Consider `CCN(CC)CCN1C(=O)N2[C@H](c3cccc(O)c3)c3[nH]c4ccc(OC(F)F)cc4c3C[C@@]2(C)C1=O` (racemic) [Example 276, (3aSR,10RS)-2-(2-Diethylamino-ethyl)-6-(1,1-difluoro-methoxy)-10-(3-hydroxy-phenyl)-3a-methyl-3a,4,9,10-tetrahydro-2,9,10a-triaza-cyclopenta[b]fluorene-1,3-dione], for which the 50% effective concentration (EC50) was at most 39.8 nM.
On to `CCOc1ccc2[nH]c3c(c2c1)C[C@@]1(C)C(=O)N(CCCN(C)C(C)C)C(=O)N1[C@@H]3c1cccc(O)c1` (racemic) [Example 197, (3aSR,10RS)-6-Ethoxy-10-(3-hydroxy-phenyl)-2-[3-(isopropyl-methyl-amino)-propyl]-3a-methyl-3a,4,9,10-tetrahydro-2,9,10a-triaza-cyclpenta[b]fluorene-1,3-dione], for which the EC50 is 39.8 to 251 nM.
As for `COc1cc2c3c([nH]c2cc1F)[C@@H](c1cccc(O)c1)N1C(=O)N(CCNC(C)C)C(=O)[C@]1(C)C3` (racemic) [Example 250, (3aSR,10RS)-7-Fluoro-10-(3-hydroxy-phenyl)-2-(2-isopropylamino-ethyl)-6-methoxy-3a-methyl-3a,4,9,10-tetrahydro-2,9,10a-triaza-cyclopenta[b]fluorene-1,3-dione], the figure is at most 39.8 nM; as for `CCN(CCO)CCCN1C(=O)N2[C@H](c3cccc(O)c3)c3[nH]c4cc(F)c(OC)cc4c3C[C@@]2(C)C1=O` (racemic) [Example 315, (3aSR,10RS)-2-{3-[Ethyl-(2-hydroxy-ethyl)-amino]-propyl}-7-fluoro-10-(3-hydroxy-phenyl)-6-methoxy-3a-methyl-3a,4,9,10-tetrahydro-2,9,10a-triaza-cyclopenta[b]fluorene-1,3-dione], 39.8 to 251 nM; as for `COc1ccc2[nH]c3c(c2c1)C[C@@]1(C)C(=O)N(CCCNC2CC2)C(=O)N1[C@@H]3c1cccc(O)c1` [Example 537, (3aS,10R)-2-(3-Cyclopropylamino-propyl)-10-(3-hydroxy-phenyl)-6-methoxy-3a-methyl-3a,4,9,10-tetrahydro-2,9,10a-triaza-cyclopenta[b]fluorene-1,3-dione], at most 39.8 nM.
The result for `C[C@@]12Cc3c([nH]c4ccc(OC(F)F)cc34)[C@@H](c3cccc(O)c3)N1C(=O)N(CCN1CCCCCC1)C2=O` (racemic) [Example 282, (3aSR,10RS)-2-(2-Azepan-1-yl-ethyl)-6-(1,1-difluoro-methoxy)-10-(3-hydroxy-phenyl)-3a-methyl-3a,4,9,10-tetrahydro-2,9,10a-triaza-cyclopenta[b]fluorene-1,3-dione] reads 39.8 to 251 nM.
Take `CCOc1ccc2[nH]c3c(c2c1)C[C@@]1(C)C(=O)N(CCCNCCOC)C(=O)N1[C@@H]3c1cccc(O)c1` (racemic) [Example 189, (3aSR,10RS)-6-Ethoxy-10-(3-hydroyx-phenyl)-2-[3-(2-methoxy-ethylamino)-propyl]-3a-methyl-3a,4,9,10-tetrahydro-2,9,10a-triaza-cyclopenta[b]fluorene-1,3-dione]: the concentration giving a half-maximal response (EC50) was 39.8 to 251 nM.
As to `C[C@@]12Cc3c([nH]c4cc(F)c(Cl)cc34)[C@@H](c3cccc(O)c3)N1C(=O)N(CCN1CCCCC1)C2=O` (racemic) [Example 356, (3aSR,10RS)-6-Chloro-7-fluoro-10-(3-hydroxy-phenyl)-3a-methyl-2-(2-piperidin-1-yl-ethyl)-3a,4,9,10-tetrahydro-2,9,10a-triaza-cyclopenta[b]fluorene-1,3-dione], the EC50 is 39.8 to 251 nM.
Consider `CCOc1ccc2[nH]c3c(c2c1)C[C@@]1(C)C(=O)N(CCN2CC=CCC2)C(=O)N1[C@@H]3c1cccc(O)c1` (racemic) [Example 165, (3aSR,10RS)-2-[2-(3,6-Dihydro-2H-pyridin-1-yl)-ethyl]-6-ethoxy-10-(3-hydroxy-phenyl)-3a-methyl-3a,4,9,10-tetrahydro-2,9,10a-triaza-cyclopenta[b]fluorene-1,3-dione], for which the EC50 is 39.8 to 251 nM.
The result for `C[C@@]12Cc3c([nH]c4ccc(OC(F)F)cc34)[C@@H](c3cccc(O)c3)N1C(=O)N(CCNCC1CC1)C2=O` (racemic) [Example 270, (3aSR,10RS)-2-[2-(Cyclopropylmethyl-amino)-ethyl]-6-(1,1-difluoro-methoxy)-10-(3-hydroxy-phenyl)-3a-methyl-3a,4,9,10-tetrahydro-2,9,10a-triaza-cyclopenta[b]fluorene-1,3-dione] reads at most 39.8 nM.
As to `C[C@@]12Cc3c([nH]c4ccc(Cl)cc34)[C@@H](c3cccc(O)c3)N1C(=O)N(CCCN1CC=CCC1)C2=O` (racemic) [Example 174, (3aSR,10RS)-6-Chloro-2-[3-(3,6-dihydro-2H-pyridin-1-yl)-propyl]-10-(3-hydroxy-phenyl)-3a-methyl-3a,4,9,10-tetrahydro-2,9,10a-triaza-cyclopenta[b]fluorene-1,3-dione], the EC50 was at most 39.8 nM.
The result for `C[C@@]12Cc3c([nH]c4ccc(OC(F)F)cc34)[C@@H](c3cccc(O)c3)N1C(=O)N(CCCN1CCOCC1)C2=O` (racemic) [Example 236, (3aSR,10RS)-6-(1,1-Difluoro-methoxy)-10-(3-hydroxy-phenyl)-3a-methyl-2-(3-morpholin-4-yl-propyl)-3a,4,9,10-tetrahydro-2,9,10a-triaza-cyclopenta[b]fluorene-1,3-dione] reads 39.8 to 251 nM; that for `CN1CCN(CCN2C(=O)N3[C@H](c4cccc(O)c4)c4[nH]c5ccc(Br)cc5c4C[C@@]3(C)C2=O)CC1` (racemic) [Example 386, (3aSR,10RS)-6-Bromo-10-(3-hydroxy-phenyl)-3a-methyl-2-[2-(4-methyl-piperazin-1-yl)-ethyl]-3a,4,9,10-tetrahydro-2,9,10a-triaza-cyclopenta[b]fluorene-1,3-dione], at most 39.8 nM.
For `C#CCN(C)CCCN1C(=O)N2[C@H](c3cccc(O)c3)c3[nH]c4ccc(Cl)cc4c3C[C@@]2(C)C1=O` (racemic) [Example 170, (3aSR,10RS)-6-Chloro-10-(3-hydroxy-phenyl)-3a-methyl-2-[3-(methyl-prop-2-ynyl-amino)-propyl]-3a,4,9,10-tetrahydro-2,9,10a-triaza-cyclopenta[b]fluorene-1,3-dione], the EC50 was 39.8 to 251 nM.
Take `COCCNCCCN1C(=O)N2[C@H](c3cccc(O)c3)c3[nH]c4ccc(OC)cc4c3C[C@@]2(C)C1=O` [Example 490, (3aS,10R)-10-(3-Hydroxy-phenyl)-6-methoxy-2-[3-(2-methoxy-ethylamino)-propyl]-3a-methyl-3a,4,9,10-tetrahydro-2,9,10a-triaza-cyclopenta[b]fluorene-1,3-dione]: the EC50 was at most 39.8 nM.
For `C#CCNCCN1C(=O)N2[C@H](c3cccc(O)c3)c3[nH]c4ccc(OC(F)F)cc4c3C[C@@]2(C)C1=O` (racemic) [Example 287, (3aSR,10RS)-6-(1,1-Difluoro-methoxy)-10-(3-hydroxy-phenyl)-3a-methyl-2-(2-prop-2-ynylamino-ethyl)-3a,4,9,10-tetrahydro-2,9,10a-triaza-cyclopenta[b]fluorene-1,3-dione], the 50% effective concentration (EC50) is 39.8 to 251 nM.
As for `C[C@@]12Cc3c([nH]c4ccc(Br)cc34)[C@@H](c3cccc(O)c3)N1C(=O)N(CCN1CCCCCC1)C2=O` (racemic) [Example 396, (3aSR,10RS)-2-(2-Azepan-1-yl-ethyl)-6-bromo-10-(3-hydroxy-phenyl)-3a-methyl-3a,4,9,10-tetrahydro-2,9,10a-triaza-cyclopenta[b]fluorene-1,3-dione], the figure is 39.8 to 251 nM.

Usually EC50 stands for the concentration needed to bring the measured effect to its halfway point.
